Data as given in ChEMBL document CHEMBL1275409, “Antimicrobial-resistant pathogens in intensive care units in Canada: results of the Canadian National Intensive Care Unit (CAN-ICU) study, 2005-2006” (2008).

What was measured:
Type in all cases: functional
Staphylococcus aureus [1] = test: Antimicrobial activity against methicillin-susceptible Staphylococcus aureus isolated from ICU patient blood assessed as resistant isolates by broth microdilution method in presence of beta-lactamase inhibitor Tazobactam
Staphylococcus aureus [2] = test: Antimicrobial activity against methicillin-susceptible Staphylococcus aureus assessed as resistant isolates by broth microdilution method in presence of beta-lactamase inhibitor Tazobactam
Staphylococcus aureus [3] = test: Antimicrobial activity against methicillin-susceptible Staphylococcus aureus isolated from ICU patient wound assessed as resistant isolates by broth microdilution method in presence of beta-lactamase inhibitor Tazobactam
Staphylococcus aureus [4] = test: Antimicrobial activity against methicillin-susceptible Staphylococcus aureus isolated from ICU patient respiratory tract assessed as resistant isolates by broth microdilution method in presence of beta-lactamase inhibitor Tazobactam
Staphylococcus aureus [5] = test: Antimicrobial activity against methicillin-resistant Staphylococcus aureus assessed as resistant isolates by broth microdilution method in presence of beta-lactamase inhibitor Tazobactam
Staphylococcus aureus [6] = test: Antimicrobial activity against methicillin-resistant Staphylococcus aureus isolated from ICU patient blood assessed as resistant isolates by broth microdilution method in presence of beta-lactamase inhibitor Tazobactam
Staphylococcus aureus [7] = test: Antimicrobial activity against methicillin-resistant Staphylococcus aureus isolated from ICU patient urine assessed as resistant isolates by broth microdilution method in presence of beta-lactamase inhibitor Tazobactam
Staphylococcus aureus [8] = test: Antimicrobial activity against methicillin-resistant Staphylococcus aureus isolated from ICU patient wound assessed as resistant isolates by broth microdilution method in presence of beta-lactamase inhibitor Tazobactam
Staphylococcus aureus [9] = test: Antimicrobial activity against methicillin-resistant Staphylococcus aureus isolated from ICU patient respiratory tract assessed as resistant isolates by broth microdilution method in presence of beta-lactamase inhibitor Tazobactam
[10] = tested on: Staphylococcus epidermidis; test: Antimicrobial activity against methicillin-susceptible Staphylococcus epidermidis assessed as resistant isolates by broth microdilution method in presence of beta-lactamase inhibitor Tazobactam
[11] = tested on: Staphylococcus epidermidis; test: Antimicrobial activity against methicillin-susceptible Staphylococcus epidermidis isolated from ICU patient blood assessed as resistant isolates by broth microdilution method in presence of beta-lactamase inhibitor Tazobactam
[12] = tested on: Staphylococcus epidermidis; test: Antimicrobial activity against methicillin-susceptible Staphylococcus epidermidis isolated from ICU patient urine assessed as resistant isolates by broth microdilution method in presence of beta-lactamase inhibitor Tazobactam
[13] = tested on: Staphylococcus epidermidis; test: Antimicrobial activity against methicillin-susceptible Staphylococcus epidermidis isolated from ICU patient wound assessed as resistant isolates by broth microdilution method in presence of beta-lactamase inhibitor Tazobactam
[14] = tested on: Staphylococcus epidermidis; test: Antimicrobial activity against methicillin-susceptible Staphylococcus epidermidis isolated from ICU patient respiratory tract assessed as resistant isolates by broth microdilution method in presence of beta-lactamase inhibitor Tazobactam
[15] = tested on: Staphylococcus epidermidis; test: Antimicrobial activity against methicillin-resistant Staphylococcus epidermidis assessed as resistant isolates by broth microdilution method in presence of beta-lactamase inhibitor Tazobactam
[16] = tested on: Staphylococcus epidermidis; test: Antimicrobial activity against methicillin-resistant Staphylococcus epidermidis isolated from ICU patient blood assessed as resistant isolates by broth microdilution method in presence of beta-lactamase inhibitor Tazobactam
[17] = tested on: Staphylococcus epidermidis; test: Antimicrobial activity against methicillin-resistant Staphylococcus epidermidis isolated from ICU patient urine assessed as resistant isolates by broth microdilution method in presence of beta-lactamase inhibitor Tazobactam
[18] = tested on: Staphylococcus epidermidis; test: Antimicrobial activity against methicillin-resistant Staphylococcus epidermidis isolated from ICU patient wound assessed as resistant isolates by broth microdilution method in presence of beta-lactamase inhibitor Tazobactam
Haemophilus influenzae [19] = test: Antimicrobial activity against Haemophilus influenzae isolated from ICU patient respiratory tract assessed as resistant isolates by broth microdilution method in presence of beta-lactamase inhibitor Tazobactam
Haemophilus influenzae [20] = test: Antimicrobial activity against Haemophilus influenzae isolated from ICU patient wound assessed as resistant isolates by broth microdilution method in presence of beta-lactamase inhibitor Tazobactam
Enterococcus sp. [21] = test: Antimicrobial activity against vancomycin-resistant Enterococcus sp. assessed as resistant isolates by broth microdilution method in presence of beta-lactamase inhibitor Tazobactam
Enterococcus sp. [22] = test: Antimicrobial activity against vancomycin-resistant Enterococcus sp. isolated from ICU patient blood assessed as resistant isolates by broth microdilution method in presence of beta-lactamase inhibitor Tazobactam
Enterococcus sp. [23] = test: Antimicrobial activity against vancomycin-resistant Enterococcus sp. isolated from ICU patient urine assessed as resistant isolates by broth microdilution method in presence of beta-lactamase inhibitor Tazobactam
Enterococcus sp. [24] = test: Antimicrobial activity against vancomycin-resistant Enterococcus sp. isolated from ICU patient wound assessed as resistant isolates by broth microdilution method in presence of beta-lactamase inhibitor Tazobactam
Enterococcus sp. [25] = test: Antimicrobial activity against vancomycin-resistant Enterococcus sp. isolated from ICU patient respiratory tract assessed as resistant isolates by broth microdilution method in presence of beta-lactamase inhibitor Tazobactam
Escherichia coli [26] = test: Antimicrobial activity against CTX-M ESBL producing Escherichia coli assessed as resistant isolates by broth microdilution method in presence of beta-lactamase inhibitor Tazobactam
Escherichia coli [27] = test: Antimicrobial activity against CTX-M ESBL producing Escherichia coli isolated from ICU patient blood assessed as resistant isolates by broth microdilution method in presence of beta-lactamase inhibitor Tazobactam
Escherichia coli [28] = test: Antimicrobial activity against CTX-M ESBL producing Escherichia coli isolated from ICU patient urine assessed as resistant isolates by broth microdilution method in presence of beta-lactamase inhibitor Tazobactam
Escherichia coli [29] = test: Antimicrobial activity against CTX-M ESBL producing Escherichia coli isolated from ICU patient wound assessed as resistant isolates by broth microdilution method in presence of beta-lactamase inhibitor Tazobactam
Escherichia coli [30] = test: Antimicrobial activity against CTX-M ESBL producing Escherichia coli isolated from ICU patient respiratory tract assessed as resistant isolates by broth microdilution method in presence of beta-lactamase inhibitor Tazobactam
Klebsiella pneumoniae [31] = test: Antimicrobial activity against ESBL producing Klebsiella pneumoniae assessed as resistant isolates by broth microdilution method in presence of beta-lactamase inhibitor Tazobactam
Klebsiella pneumoniae [32] = test: Antimicrobial activity against ESBL producing Klebsiella pneumoniae isolated from ICU patient blood assessed as resistant isolates by broth microdilution method in presence of beta-lactamase inhibitor Tazobactam
Klebsiella pneumoniae [33] = test: Antimicrobial activity against ESBL producing Klebsiella pneumoniae isolated from ICU patient urine assessed as resistant isolates by broth microdilution method in presence of beta-lactamase inhibitor Tazobactam
Klebsiella pneumoniae [34] = test: Antimicrobial activity against ESBL producing Klebsiella pneumoniae isolated from ICU patient wound assessed as resistant isolates by broth microdilution method in presence of beta-lactamase inhibitor Tazobactam
Klebsiella pneumoniae [35] = test: Antimicrobial activity against ESBL producing Klebsiella pneumoniae isolated from ICU patient respiratory tract assessed as resistant isolates by broth microdilution method in presence of beta-lactamase inhibitor Tazobactam
Pseudomonas aeruginosa [36] = test: Antimicrobial activity against carbapenem-resistant Pseudomonas aeruginosa assessed as resistant isolates by broth microdilution method in presence of beta-lactamase inhibitor Tazobactam
Pseudomonas aeruginosa [37] = test: Antimicrobial activity against carbapenem-resistant Pseudomonas aeruginosa isolated from ICU patient blood assessed as resistant isolates by broth microdilution method in presence of beta-lactamase inhibitor Tazobactam
Pseudomonas aeruginosa [38] = test: Antimicrobial activity against carbapenem-resistant Pseudomonas aeruginosa isolated from ICU patient urine assessed as resistant isolates by broth microdilution method in presence of beta-lactamase inhibitor Tazobactam
Pseudomonas aeruginosa [39] = test: Antimicrobial activity against carbapenem-resistant Pseudomonas aeruginosa isolated from ICU patient wound assessed as resistant isolates by broth microdilution method in presence of beta-lactamase inhibitor Tazobactam
Pseudomonas aeruginosa [40] = test: Antimicrobial activity against carbapenem-resistant Pseudomonas aeruginosa isolated from ICU patient respiratory tract assessed as resistant isolates by broth microdilution method in presence of beta-lactamase inhibitor Tazobactam
Enterobacter cloacae [41] = test: Antimicrobial activity against carbapenem-resistant Enterobacter cloacae assessed as resistant isolates by broth microdilution method in presence of beta-lactamase inhibitor Tazobactam
Enterobacter cloacae [42] = test: Antimicrobial activity against carbapenem-resistant Enterobacter cloacae isolated from ICU patient blood assessed as resistant isolates by broth microdilution method in presence of beta-lactamase inhibitor Tazobactam
Enterobacter cloacae [43] = test: Antimicrobial activity against carbapenem-resistant Enterobacter cloacae isolated from ICU patient urine assessed as resistant isolates by broth microdilution method in presence of beta-lactamase inhibitor Tazobactam
Enterobacter cloacae [44] = test: Antimicrobial activity against carbapenem-resistant Enterobacter cloacae isolated from ICU patient wound assessed as resistant isolates by broth microdilution method in presence of beta-lactamase inhibitor Tazobactam
Enterobacter cloacae [45] = test: Antimicrobial activity against carbapenem-resistant Enterobacter cloacae isolated from ICU patient respiratory tract assessed as resistant isolates by broth microdilution method in presence of beta-lactamase inhibitor Tazobactam
Haemophilus influenzae [46] = test: Antimicrobial activity against Haemophilus influenzae assessed as resistant isolates by broth microdilution method in presence of beta-lactamase inhibitor Tazobactam
Haemophilus influenzae [47] = test: Antimicrobial activity against Haemophilus influenzae isolated from ICU patient blood assessed as resistant isolates by broth microdilution method in presence of beta-lactamase inhibitor Tazobactam
Enterococcus sp. [48] = test: Antimicrobial activity against vancomycin-resistant Enterococcus sp. isolated from ICU patient respiratory tract assessed as resistant isolates by broth microdilution method
Staphylococcus aureus [49] = test: Antimicrobial activity against methicillin-susceptible Staphylococcus aureus isolated from ICU patient urine assessed as resistant isolates by broth microdilution method in presence of beta-lactamase inhibitor Tazobactam

**Q.** With `CCN1CCN(C(=O)N[C@@H](C(=O)N[C@@H]2C(=O)N3[C@@H]2SC(C)(C)[C@@H]3C(=O)O)c2ccccc2)C(=O)C1=O` [PIPERACILLIN] as the compound, how does the Activity (Staphylococcus aureus [1]) read?
**A.** 0%

**Q.** What about the Activity (Staphylococcus aureus [2]) of the same compound?
**A.** 0%

**Q.** And the Activity (Staphylococcus aureus [3])?
**A.** 0%

**Q.** And the Activity (Staphylococcus aureus [4])?
**A.** 0%

**Q.** And the Activity (Staphylococcus aureus [5])?
**A.** 100%

**Q.** And the Activity (Staphylococcus aureus [6])?
**A.** 100%

**Q.** And the Activity (Staphylococcus aureus [7])?
**A.** 100%

**Q.** And the Activity (Staphylococcus aureus [8])?
**A.** 100%

**Q.** And the Activity (Staphylococcus aureus [9])?
**A.** 100%

**Q.** What about the Activity [10] of the same compound?
**A.** 1.2%

**Q.** What about the Activity [11] of the same compound?
**A.** 0%

**Q.** And the Activity [12]?
**A.** 0%

**Q.** What about the Activity [13] of the same compound?
**A.** 4.2%

**Q.** And the Activity [14]?
**A.** 0%

**Q.** And the Activity [15]?
**A.** 100%

**Q.** What about the Activity [16] of the same compound?
**A.** 100%

**Q.** And the Activity [17]?
**A.** 100%

**Q.** What about the Activity [18] of the same compound?
**A.** 100%

**Q.** And the Activity (Haemophilus influenzae [19])?
**A.** 0.3%

**Q.** And the Activity (Haemophilus influenzae [20])?
**A.** 0%

**Q.** What about the Activity (Enterococcus sp. [21]) of the same compound?
**A.** 21.1%

**Q.** And the Activity (Enterococcus sp. [22])?
**A.** 27%

**Q.** What about the Activity (Enterococcus sp. [23]) of the same compound?
**A.** 17.3%

**Q.** And the Activity (Enterococcus sp. [24])?
**A.** 22.2%

**Q.** What about the Activity (Enterococcus sp. [25]) of the same compound?
**A.** 13.3%

**Q.** And the Activity (Escherichia coli [26])?
**A.** 1.9%

**Q.** And the Activity (Escherichia coli [27])?
**A.** 6.9%

**Q.** And the Activity (Escherichia coli [28])?
**A.** 1.1%

**Q.** And the Activity (Escherichia coli [29])?
**A.** 0%

**Q.** What about the Activity (Escherichia coli [30]) of the same compound?
**A.** 1.6%

**Q.** What about the Activity (Klebsiella pneumoniae [31]) of the same compound?
**A.** 9.3%

**Q.** And the Activity (Klebsiella pneumoniae [32])?
**A.** 6.1%

**Q.** What about the Activity (Klebsiella pneumoniae [33]) of the same compound?
**A.** 13.3%

**Q.** What about the Activity (Klebsiella pneumoniae [34]) of the same compound?
**A.** 18.9%

**Q.** What about the Activity (Klebsiella pneumoniae [35]) of the same compound?
**A.** 7.3%

**Q.** What about the Activity (Pseudomonas aeruginosa [36]) of the same compound?
**A.** 1.3%

**Q.** What about the Activity (Pseudomonas aeruginosa [37]) of the same compound?
**A.** 0%

**Q.** And the Activity (Pseudomonas aeruginosa [38])?
**A.** 0%

**Q.** And the Activity (Pseudomonas aeruginosa [39])?
**A.** 0%

**Q.** And the Activity (Pseudomonas aeruginosa [40])?
**A.** 2.5%

**Q.** And the Activity (Enterobacter cloacae [41])?
**A.** 4.9%

**Q.** And the Activity (Enterobacter cloacae [42])?
**A.** 4.2%

**Q.** What about the Activity (Enterobacter cloacae [43]) of the same compound?
**A.** 12.5%

**Q.** And the Activity (Enterobacter cloacae [44])?
**A.** 0%

**Q.** What about the Activity (Enterobacter cloacae [45]) of the same compound?
**A.** 4.6%

**Q.** What about the Activity (Haemophilus influenzae [46]) of the same compound?
**A.** 0.3%

**Q.** And the Activity (Haemophilus influenzae [47])?
**A.** 0%

**Q.** And the Activity (Enterococcus sp. [48])?
**A.** 0%

**Q.** And the Activity (Staphylococcus aureus [49])?
**A.** 0%
